From ChEMBL document CHEMBL1201862, “PubChem BioAssay data set” (2004)
The source made the active and inactive calls.

How the values were obtained:
[1] = target: Glyceraldehyde-3-phosphate dehydrogenase (Homo sapiens, UniProt P04406)
[2] = target: Alkaline phosphatase, placental type (Homo sapiens, UniProt P05187); experiment: human placental alkaline phosphatase inhibition – biochemical, luminescence, confirmation (AID 1512); format: functional
[3] = target: T1, Alkaline phosphatase, tissue-nonspecific isozyme (Homo sapiens, UniProt P05186); experiment: potency against alkaline phosphatase TNAP – biochemical, luminescent, dose response, SAR follow-up (AID 1056)
T1 sequence (P05186 whole entry): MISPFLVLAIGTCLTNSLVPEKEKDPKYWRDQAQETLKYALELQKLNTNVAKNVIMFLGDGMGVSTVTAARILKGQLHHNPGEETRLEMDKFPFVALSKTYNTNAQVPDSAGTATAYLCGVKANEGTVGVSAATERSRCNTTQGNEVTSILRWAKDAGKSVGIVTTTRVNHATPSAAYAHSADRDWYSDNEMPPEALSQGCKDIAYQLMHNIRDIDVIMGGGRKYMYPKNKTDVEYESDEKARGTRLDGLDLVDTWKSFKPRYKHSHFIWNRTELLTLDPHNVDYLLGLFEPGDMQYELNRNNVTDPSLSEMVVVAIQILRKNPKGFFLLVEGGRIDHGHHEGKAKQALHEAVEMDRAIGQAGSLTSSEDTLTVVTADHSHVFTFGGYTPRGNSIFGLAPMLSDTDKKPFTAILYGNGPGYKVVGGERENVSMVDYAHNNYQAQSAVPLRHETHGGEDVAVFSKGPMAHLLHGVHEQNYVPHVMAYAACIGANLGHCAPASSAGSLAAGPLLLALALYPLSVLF

[4] = target: T2, Replicative DNA helicase DnaB (Mycobacterium tuberculosis, UniProt P9WMR3); experiment: DnaB intein splicing inhibitors, dose response, biochemical, cell-free fluorescence (AID 449749); format: functional
T2 sequence (P9WMR3 whole entry): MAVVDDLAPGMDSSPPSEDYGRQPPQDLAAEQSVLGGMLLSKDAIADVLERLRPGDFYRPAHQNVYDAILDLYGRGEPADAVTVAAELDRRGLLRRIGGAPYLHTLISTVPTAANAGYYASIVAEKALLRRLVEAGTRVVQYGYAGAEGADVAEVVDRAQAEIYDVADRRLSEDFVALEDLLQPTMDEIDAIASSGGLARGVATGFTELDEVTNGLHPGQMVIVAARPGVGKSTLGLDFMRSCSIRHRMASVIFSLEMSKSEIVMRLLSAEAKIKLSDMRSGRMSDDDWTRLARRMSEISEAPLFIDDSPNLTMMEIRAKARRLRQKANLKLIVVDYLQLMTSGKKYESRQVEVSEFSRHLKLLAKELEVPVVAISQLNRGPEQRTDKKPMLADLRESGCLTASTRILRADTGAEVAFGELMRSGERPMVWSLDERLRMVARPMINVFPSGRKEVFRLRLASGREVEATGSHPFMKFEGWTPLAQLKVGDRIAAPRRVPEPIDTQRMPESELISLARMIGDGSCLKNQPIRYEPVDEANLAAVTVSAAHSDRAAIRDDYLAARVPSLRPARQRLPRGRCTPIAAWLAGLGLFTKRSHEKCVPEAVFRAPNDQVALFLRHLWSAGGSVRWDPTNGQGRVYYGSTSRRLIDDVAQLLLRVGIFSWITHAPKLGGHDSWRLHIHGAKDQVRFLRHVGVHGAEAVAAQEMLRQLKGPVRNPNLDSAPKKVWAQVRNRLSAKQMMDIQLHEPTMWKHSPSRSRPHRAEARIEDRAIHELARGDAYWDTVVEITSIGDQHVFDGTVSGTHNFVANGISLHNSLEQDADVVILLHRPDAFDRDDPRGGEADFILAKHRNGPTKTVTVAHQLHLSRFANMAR

[5] = target: T3, Orexin/Hypocretin receptor type 1 (Homo sapiens, UniProt O43613); experiment: Fluorescence-based cell-based high throughput dose response assay for antagonists of the orexin 1 receptor (OX1R; HCRTR1). [Related pubchem assays (depositor defined):AID434989, AID435008, AID463079, AID485270, AID492963, AID492964, AID492965, AID493232, AID504717, AID504718]; format: functional
T3 sequence (O43613 whole entry): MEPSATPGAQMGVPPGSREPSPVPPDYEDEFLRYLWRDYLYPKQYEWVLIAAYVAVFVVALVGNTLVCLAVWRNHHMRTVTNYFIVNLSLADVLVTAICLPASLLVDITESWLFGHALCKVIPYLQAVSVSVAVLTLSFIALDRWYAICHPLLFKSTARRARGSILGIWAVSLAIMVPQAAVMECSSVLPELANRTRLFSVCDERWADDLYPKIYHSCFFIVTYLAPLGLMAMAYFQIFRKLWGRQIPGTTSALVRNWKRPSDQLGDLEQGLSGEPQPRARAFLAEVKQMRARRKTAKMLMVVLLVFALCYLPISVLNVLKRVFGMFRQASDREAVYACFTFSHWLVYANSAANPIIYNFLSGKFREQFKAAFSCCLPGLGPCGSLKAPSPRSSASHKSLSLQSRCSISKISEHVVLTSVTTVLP

[6] = target: T3, Orexin/Hypocretin receptor type 1; experiment: Homogeneous Time Resolved Fluorescence (HTRF)-based cell-based high throughput dose response assay for antagonists of the orexin 1 receptor (OX1R; HCRTR1). [Related pubchem assays (depositor defined):AID434989, AID435008, AID463079, AID485270, AID492963, AID492964, AID492965, AID493232, AID504717, AID504718]; format: functional
[7] = Counterscreen for antagonists of the orexin 1 receptor (OX1R; HCRTR1): Fluorescence-based cell-based high throughput dose response assay to identify antagonists of the parental CHO cell line. [Related pubchem assays (depositor defined):AID434989, AID435008, AID463079, AID485270, AID492963, AID492964, AID492965, AID493232, AID504699, AID504701]; format: functional
CHO-K1 = experiment: Counterscreen for antagonists of the orexin 1 receptor (OX1R; HCRTR1): Homogeneous time resolved fluorescence (HTRF)-based cell-based dose response assay to identify antagonists of the parental CHO-K1 cell line. [Related pubchem assays (depositor defined):AID434989, AID435008, AID463079, AID485270, AID492963, AID492964, AID492965, AID493232, AID504699, AID504701]; format: functional; settings: Cricetulus griseus;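 note: potency for inhibition of ATP-stimulated IP1 production as antagonists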
Protein RecA = target: T4, Protein RecA (Mycobacterium tuberculosis, UniProt P9WHJ3); experiment: Fluorescence Cell-Free Homogeneous Dose Retest to Identify Inhibitors of RecA-Intein Splicing Activity. [Related pubchem assays (depositor defined):AID2097, AID2223, AID489010, AID492950]; format: functional
T4 sequence (P9WHJ3 whole entry): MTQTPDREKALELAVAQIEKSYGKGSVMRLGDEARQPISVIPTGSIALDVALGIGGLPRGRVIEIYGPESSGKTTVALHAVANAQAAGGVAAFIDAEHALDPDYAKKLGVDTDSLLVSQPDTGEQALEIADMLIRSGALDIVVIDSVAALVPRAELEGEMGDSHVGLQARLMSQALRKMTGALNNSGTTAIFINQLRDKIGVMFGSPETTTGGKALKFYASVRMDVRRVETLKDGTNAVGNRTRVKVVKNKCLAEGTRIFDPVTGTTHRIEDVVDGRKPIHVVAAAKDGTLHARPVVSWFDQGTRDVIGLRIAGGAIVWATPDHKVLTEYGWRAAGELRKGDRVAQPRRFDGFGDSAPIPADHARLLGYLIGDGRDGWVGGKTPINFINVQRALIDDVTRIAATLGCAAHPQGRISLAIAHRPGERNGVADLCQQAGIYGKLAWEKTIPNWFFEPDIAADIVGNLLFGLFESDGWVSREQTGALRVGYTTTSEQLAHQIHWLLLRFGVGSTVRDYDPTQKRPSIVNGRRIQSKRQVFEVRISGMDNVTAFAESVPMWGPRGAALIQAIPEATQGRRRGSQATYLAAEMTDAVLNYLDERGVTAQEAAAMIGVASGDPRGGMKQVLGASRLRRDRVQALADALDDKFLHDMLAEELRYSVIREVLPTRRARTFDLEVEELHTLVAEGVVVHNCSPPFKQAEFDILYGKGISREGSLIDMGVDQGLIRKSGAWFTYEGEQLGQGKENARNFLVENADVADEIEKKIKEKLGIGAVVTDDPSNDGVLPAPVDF

[8] = target: Intestinal-type alkaline phosphatase (Homo sapiens, UniProt P09923); experiment: human intestinal alkaline phosphatase activators, dose response, biochemical, luminescence, uHTS hits (AID 463120); format: functional
[9] = Intein inhibitors as potential Tuberculosis drugs, a cytotoxicity screen. [Related pubchem assays (depositor defined):AID2221, AID2223, AID434968, AID435010, AID449749, AID449750, AID489010]; format: functional
[10] = target: T5, Heat shock factor protein 1 (Mus musculus, UniProt P38532); experiment: enhancement of HSF1-driven luciferase signal – cell-based, NIH3T3, luminescence, dose retest, confirmation (AID 435004); format: functional;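 note: stress induced by proteasome inhibitor MG132 added 30 min after compound; luciferase reporter driven by HSF1 response element in NIH3T3 cells; actives raise luminescence as potentiators of the MG132 stress response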
T5 sequence (P38532 whole entry): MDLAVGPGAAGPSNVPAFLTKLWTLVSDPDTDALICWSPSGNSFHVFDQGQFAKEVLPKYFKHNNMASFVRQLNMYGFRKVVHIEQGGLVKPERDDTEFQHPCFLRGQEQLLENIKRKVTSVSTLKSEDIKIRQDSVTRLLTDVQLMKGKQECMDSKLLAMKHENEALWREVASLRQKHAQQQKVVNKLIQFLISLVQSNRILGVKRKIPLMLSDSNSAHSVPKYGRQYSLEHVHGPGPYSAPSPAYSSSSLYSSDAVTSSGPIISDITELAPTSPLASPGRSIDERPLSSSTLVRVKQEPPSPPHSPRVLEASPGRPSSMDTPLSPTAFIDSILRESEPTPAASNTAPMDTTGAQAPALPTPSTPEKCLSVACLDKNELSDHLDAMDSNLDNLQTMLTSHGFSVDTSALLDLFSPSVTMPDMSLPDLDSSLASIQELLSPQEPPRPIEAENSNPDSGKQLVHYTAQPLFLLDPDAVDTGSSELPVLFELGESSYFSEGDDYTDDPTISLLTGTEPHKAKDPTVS

[11] = NIH-3T3 fibroblast cytotoxicity, dose response, cytotoxicity control, cell-based, fluorescence, Alamar Blue, secondary assay (AID 2327); format: functional;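 note: NIH-3T3 mouse fibroblasts cultured with fluconazole at 8 µg/mL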
[12] = target: T6, Voltage-gated N-type calcium channel alpha-1B subunit/Amyloid beta A4 precursor protein-binding family A member 1 (Homo sapiens, UniProt Q00975+Q02410); format: protein assay
[13] = target: T6, Voltage-gated N-type calcium channel alpha-1B subunit/Amyloid beta A4 precursor protein-binding family A member 1; format: protein assay; remark: listed apart in the source
[14] = fluconazole-exposed Candida albicans growth modulators – fluorescence, retest, confirmation (AID 2467); format: functional, cell-based
[15] = target: Polyadenylate-binding protein 1 (Homo sapiens, UniProt P11940); experiment: blockers of PABP interaction with poly(A) – biochemical, fluorescence polarization, […] (AID 2014)
[16] = target: T7, Long-chain-fatty-acid--AMP ligase FadD28 (Mycobacterium tuberculosis, UniProt P9WQ59); experiment: Fluorescence polarization aasay to screen for inhibitors that compete for the binding of FadD28 to a bisubstrate Measured in Biochemical System Using Plate Reader - 2147-01_Inhibitor_Dose_CherryPick_Activity.; format: functional, Mycobacterium tuberculosis H37Rv
T7 sequence (P9WQ59 whole entry): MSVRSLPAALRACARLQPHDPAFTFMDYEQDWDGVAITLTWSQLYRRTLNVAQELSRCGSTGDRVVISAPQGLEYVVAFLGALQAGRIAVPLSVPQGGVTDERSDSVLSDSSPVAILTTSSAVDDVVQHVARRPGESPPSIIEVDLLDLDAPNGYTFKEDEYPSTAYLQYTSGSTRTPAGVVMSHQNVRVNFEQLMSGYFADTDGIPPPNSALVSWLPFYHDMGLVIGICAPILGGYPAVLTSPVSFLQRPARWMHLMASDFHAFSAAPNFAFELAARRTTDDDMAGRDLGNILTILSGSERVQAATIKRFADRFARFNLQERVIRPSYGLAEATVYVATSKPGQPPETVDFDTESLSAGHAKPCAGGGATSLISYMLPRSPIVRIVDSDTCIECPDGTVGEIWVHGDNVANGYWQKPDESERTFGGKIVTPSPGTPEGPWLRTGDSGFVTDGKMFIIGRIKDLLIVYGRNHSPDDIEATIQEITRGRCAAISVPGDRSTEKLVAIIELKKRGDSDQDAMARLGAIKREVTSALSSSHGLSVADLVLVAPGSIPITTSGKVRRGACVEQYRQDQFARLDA

[17] = target: Eukaryotic translation initiation factor 4H (Homo sapiens, UniProt Q15056); experiment: eIF4H binding inhibition – biochemical, uHTS, fluorescence polarization, translation initiation inhibitor project, primary screen (AID 2012)
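Throughout, for CC50: cells exposed to compound for 72 hours before luminescence readout.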

T6 sequence (Q00975 whole entry): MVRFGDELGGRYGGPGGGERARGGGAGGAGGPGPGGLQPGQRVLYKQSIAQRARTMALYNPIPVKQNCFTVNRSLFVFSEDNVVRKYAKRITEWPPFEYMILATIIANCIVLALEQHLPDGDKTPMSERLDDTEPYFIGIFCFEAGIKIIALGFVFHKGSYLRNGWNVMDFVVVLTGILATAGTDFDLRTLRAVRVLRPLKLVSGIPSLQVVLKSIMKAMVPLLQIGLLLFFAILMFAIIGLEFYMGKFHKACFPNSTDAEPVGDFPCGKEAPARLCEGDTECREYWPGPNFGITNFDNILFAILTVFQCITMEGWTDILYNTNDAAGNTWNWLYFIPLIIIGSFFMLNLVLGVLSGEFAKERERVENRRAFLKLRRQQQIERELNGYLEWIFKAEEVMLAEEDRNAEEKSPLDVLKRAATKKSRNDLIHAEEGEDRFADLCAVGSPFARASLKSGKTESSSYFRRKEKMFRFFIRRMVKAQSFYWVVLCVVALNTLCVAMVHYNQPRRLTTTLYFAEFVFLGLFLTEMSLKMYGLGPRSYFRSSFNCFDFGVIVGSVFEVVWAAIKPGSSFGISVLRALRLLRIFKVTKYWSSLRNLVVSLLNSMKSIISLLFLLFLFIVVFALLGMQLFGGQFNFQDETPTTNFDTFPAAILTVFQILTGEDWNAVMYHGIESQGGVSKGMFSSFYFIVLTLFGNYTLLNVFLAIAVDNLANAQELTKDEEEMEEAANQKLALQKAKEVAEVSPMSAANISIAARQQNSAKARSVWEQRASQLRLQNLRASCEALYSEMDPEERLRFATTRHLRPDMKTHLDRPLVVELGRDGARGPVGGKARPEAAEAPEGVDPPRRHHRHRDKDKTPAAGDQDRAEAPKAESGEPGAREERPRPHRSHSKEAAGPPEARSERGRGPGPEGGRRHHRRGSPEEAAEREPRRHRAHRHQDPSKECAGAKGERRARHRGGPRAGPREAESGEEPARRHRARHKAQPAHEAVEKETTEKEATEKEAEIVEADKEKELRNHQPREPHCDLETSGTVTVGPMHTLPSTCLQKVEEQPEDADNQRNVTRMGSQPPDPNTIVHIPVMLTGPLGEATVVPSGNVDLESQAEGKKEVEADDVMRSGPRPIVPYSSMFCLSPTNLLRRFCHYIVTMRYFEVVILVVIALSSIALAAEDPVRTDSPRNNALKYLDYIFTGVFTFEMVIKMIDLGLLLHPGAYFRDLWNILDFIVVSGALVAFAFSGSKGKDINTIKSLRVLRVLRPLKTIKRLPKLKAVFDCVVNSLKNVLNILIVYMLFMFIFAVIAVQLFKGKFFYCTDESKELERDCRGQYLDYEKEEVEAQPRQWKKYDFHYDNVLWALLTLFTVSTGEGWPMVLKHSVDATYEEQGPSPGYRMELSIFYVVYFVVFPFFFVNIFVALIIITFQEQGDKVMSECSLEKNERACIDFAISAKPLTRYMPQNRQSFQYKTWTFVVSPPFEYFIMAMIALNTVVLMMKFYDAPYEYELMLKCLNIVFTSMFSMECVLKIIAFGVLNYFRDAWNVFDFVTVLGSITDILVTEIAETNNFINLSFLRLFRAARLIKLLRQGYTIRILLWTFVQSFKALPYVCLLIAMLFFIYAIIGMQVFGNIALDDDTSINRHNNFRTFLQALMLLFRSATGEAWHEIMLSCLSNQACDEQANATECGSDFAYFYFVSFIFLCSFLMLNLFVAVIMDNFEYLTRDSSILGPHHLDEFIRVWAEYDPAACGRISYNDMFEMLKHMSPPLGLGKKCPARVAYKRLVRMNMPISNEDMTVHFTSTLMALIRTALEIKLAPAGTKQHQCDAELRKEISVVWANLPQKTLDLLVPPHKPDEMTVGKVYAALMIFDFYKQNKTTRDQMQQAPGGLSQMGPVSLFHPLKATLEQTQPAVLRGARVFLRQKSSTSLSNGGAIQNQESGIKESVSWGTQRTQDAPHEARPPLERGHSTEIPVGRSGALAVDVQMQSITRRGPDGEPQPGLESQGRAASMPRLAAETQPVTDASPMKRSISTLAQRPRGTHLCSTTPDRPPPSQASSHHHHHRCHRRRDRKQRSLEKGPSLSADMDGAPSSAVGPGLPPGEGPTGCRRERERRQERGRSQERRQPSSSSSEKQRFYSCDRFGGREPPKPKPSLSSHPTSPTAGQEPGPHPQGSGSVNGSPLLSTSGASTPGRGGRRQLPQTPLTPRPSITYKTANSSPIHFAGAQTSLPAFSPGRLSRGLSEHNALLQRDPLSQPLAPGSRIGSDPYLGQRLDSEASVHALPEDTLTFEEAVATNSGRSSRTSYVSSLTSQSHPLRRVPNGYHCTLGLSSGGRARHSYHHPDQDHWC
T6 sequence (Q02410 whole entry): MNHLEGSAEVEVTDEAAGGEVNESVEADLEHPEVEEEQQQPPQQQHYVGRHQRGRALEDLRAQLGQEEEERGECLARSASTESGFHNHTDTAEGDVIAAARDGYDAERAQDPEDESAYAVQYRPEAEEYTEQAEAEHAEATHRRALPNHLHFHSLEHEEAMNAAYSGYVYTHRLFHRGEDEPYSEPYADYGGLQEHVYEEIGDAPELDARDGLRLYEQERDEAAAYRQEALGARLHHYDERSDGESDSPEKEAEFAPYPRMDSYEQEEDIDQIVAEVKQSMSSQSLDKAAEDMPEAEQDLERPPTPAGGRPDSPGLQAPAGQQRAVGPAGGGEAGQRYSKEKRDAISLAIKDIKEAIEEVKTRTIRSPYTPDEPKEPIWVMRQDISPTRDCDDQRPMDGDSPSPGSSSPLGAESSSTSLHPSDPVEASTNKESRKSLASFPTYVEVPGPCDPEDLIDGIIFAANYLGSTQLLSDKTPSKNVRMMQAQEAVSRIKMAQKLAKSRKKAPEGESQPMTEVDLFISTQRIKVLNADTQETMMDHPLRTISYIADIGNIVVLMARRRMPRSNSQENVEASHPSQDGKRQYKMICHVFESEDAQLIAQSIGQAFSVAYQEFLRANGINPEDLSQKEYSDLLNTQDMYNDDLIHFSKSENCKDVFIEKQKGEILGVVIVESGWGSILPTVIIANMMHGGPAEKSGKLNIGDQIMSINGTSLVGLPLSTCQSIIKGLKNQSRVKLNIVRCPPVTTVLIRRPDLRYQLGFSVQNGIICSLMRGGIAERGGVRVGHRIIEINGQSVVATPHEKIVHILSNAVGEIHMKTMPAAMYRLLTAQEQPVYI
Chain of Polyadenylate-binding protein 1 (P11940 whole entry): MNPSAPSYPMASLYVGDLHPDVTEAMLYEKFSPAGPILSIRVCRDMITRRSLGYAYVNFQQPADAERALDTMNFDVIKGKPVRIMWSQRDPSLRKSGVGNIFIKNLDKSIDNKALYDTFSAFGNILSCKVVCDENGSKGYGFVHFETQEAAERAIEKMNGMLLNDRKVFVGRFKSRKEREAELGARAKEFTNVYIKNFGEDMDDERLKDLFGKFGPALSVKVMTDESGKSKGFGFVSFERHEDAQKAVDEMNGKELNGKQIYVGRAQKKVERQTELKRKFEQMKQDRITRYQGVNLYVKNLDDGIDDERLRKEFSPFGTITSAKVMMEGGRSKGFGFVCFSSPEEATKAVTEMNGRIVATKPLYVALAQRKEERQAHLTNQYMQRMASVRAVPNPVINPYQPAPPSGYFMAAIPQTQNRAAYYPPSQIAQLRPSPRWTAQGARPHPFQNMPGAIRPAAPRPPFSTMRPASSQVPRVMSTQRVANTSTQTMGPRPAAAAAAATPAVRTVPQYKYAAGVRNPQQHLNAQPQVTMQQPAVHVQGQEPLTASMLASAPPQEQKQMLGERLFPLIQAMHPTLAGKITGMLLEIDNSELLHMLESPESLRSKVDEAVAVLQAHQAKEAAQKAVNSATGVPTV
Chain of Intestinal-type alkaline phosphatase (P09923 whole entry): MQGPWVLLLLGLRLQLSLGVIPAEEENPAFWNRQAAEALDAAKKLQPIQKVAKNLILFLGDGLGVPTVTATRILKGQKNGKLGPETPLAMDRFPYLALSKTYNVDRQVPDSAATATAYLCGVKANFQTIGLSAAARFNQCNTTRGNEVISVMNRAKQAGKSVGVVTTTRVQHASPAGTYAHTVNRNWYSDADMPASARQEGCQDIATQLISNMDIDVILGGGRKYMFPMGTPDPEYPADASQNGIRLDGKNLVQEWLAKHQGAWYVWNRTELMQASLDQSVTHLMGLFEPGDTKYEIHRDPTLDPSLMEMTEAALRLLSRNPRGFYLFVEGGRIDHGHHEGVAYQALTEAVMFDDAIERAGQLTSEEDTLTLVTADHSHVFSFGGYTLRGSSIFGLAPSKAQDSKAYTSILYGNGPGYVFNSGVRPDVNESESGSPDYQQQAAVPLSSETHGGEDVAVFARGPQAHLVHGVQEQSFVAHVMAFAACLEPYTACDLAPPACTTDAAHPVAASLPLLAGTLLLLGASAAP
Chain of Glyceraldehyde-3-phosphate dehydrogenase (P04406 whole entry): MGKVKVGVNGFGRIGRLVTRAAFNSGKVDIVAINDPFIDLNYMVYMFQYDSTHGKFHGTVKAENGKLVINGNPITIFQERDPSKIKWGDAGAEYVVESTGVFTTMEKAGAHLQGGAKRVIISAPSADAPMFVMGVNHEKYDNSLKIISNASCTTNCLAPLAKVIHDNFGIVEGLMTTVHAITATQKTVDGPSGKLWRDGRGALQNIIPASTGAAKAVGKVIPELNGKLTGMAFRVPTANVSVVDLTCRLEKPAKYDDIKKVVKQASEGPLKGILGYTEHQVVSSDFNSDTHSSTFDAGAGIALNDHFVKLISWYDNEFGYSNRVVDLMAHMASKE

CC1(C)CC(=O)c2c(n[nH]c2Cc2ccccc2)C1
IC50 [1]: > 100 µM (not active)
IC50 [2]: > 100 µM (inactive)
IC50 [3]: 1.24 µM (active)

Cc1ccc(/C=C2\Sc3ccccc3C2=O)s1
AC50 [4]: 11.8 µM (active)
IC50 [5]: 22.5 µM (inactive)
IC50 [6]: 23.1 µM (inactive)
IC50 [7]: > 49.7 µM (inactive)
IC50 (CHO-K1): > 66.2 µM (inactive)
EC50 (Protein RecA): 4.87 µM (active)

Cc1ccc(NC(=O)C2CC(=O)Nc3nc4ccccc4n32)c(C)c1 (centres undefined)
EC50 [8]: 34.5 µM (active)

Cc1ccc(Sc2ccc(NC(=O)CCl)cc2)c(C)c1
CC50 [9]: 9.81 µM (active)
AC50 [4]: 2.5 µM (active)
EC50 [10]: 9.67 µM (active)
EC50 (Protein RecA): 0.718 µM (active)

N#Cc1ccc(-n2c(-c3ccccc3)nnc2-c2ccccc2)cc1C#N
CC50 [9]: > 40 µM (active)
AC50 [4]: 3.83 µM (active)
EC50 (Protein RecA): 3.36 µM (active)

NC(=S)n1[nH]c(-c2ccc([N+](=O)[O-])cc2)c(/N=N/c2cccc([N+](=O)[O-])c2)c1=O
EC50 [11]: > 150 µM (inactive)
IC50 [12]: 4 µM (active)
IC50 [13]: > 50 µM (inactive)
EC50 [14]: 11.6 µM (active)
IC50 [15]: 42.5 µM (active)
AC50 [16]: 15.5 µM (active)
IC50 [17]: 2.66 µM (active)
